Measured values from patent publication US20130204033A1, “ANTIPROLIFERATIVE COMPOUNDS, CONJUGATES THEREOF, METHODS THEREFOR, AND USES THEREOF” (Medarex, Inc., priority 2009, published 2013).
Read-outs that look alike come from different tables or passages of the source.

Columns and labels:
Type in all cases: cell-based, human
[1] = test system: LNCaP; assay: 3H thymidine proliferation assay, LNCaP
Protocol: (§1) This example generally describes the procedures used to assay the antiproliferative activity of compounds of this invention or their conjugates. Human tumor cell lines were obtained from the American Type Culture Collection (ATCC), P.O. Box 1549, Manassas, Va. 20108, USA, and cultured according to instruction from the ATCC. Cells were seeded at 1.0×10^3 or 1.0×10^4 cells/well in 96-well plates for 3 h for ATP assays or ^3H thymidine assays, respectively. 1:3 serial dilutions of free (unconjugated) compounds or their conjugates were added to the wells. Plates were allowed to incubate for 24 to 72 h. The ^3H thymidine plates were pulsed with 1.0 μCi of ^3H-thymidine per well for the last 24 hours of the total incubation period, harvested, and read on a Top Count Scintillation Counter (Packard Instruments, Meriden, Conn.). ATP levels in the ATP plates were measured using the […]-GLO® Luminescent Cell Viability kit following the manufacturer's manual and read on a GLOMAX® 20/20 luminometer (both from Promega, Madison, Wis., USA). The EC50 values—the concentration at which an agent inhibits or reduces cell proliferation by 50% —were determined using PRISM™ software, version 4.0 (GraphPad Software, La Jolla, Calif., USA).
(§2) Using the ^3H thymidine or the ATP luminescence assay, or both, the activities of compounds of this invention were assayed against the following cancer cell lines: HCT-15 (colorectal cancer, multi-drug resistant (MDR)); Hep3B (liver cancer); LNCaP (prostate cancer, androgen receptor positive (AR^+)); MDA-MB-231 (breast cancer, estrogen receptor, progesterone receptor, and Her2 negative (triple negative)); A2058 (melanoma); U-87 MG (glioblastoma); NCI-H460 (NSCLC); A549 (NSCLC); HPAC (pancreatic cancer, primary); PC3 (prostate cancer, AR); BT474 (breast cancer, Her2 highly positive (Her2hi)); SKOV3 (ovarian cancer, Her2hi); 786-O (renal cancer); UO-31 (renal cancer, MDR); NCI-H740 (SCLC); DMS53 (SCLC); SK-BR3 (breast cancer, Her2hi); ZR-75 (breast cancer, estrogen receptor positive); OVCAR3 (ovarian cancer); HL-60 (APL); OVCAR8/Adr (ovarian cancer, MDR); CEM-Cl (ALL); Nomo-1 (AML); RPMI-8226 (MM)); Raji (lymphoma); SW-480 (colorectal cancer, metastatic); SW-620 (colorectal cancer); and H226 (lung cancer). (Not all compounds were assayed against all cell lines.)
(§3) Table 2 provides the data for proliferation assays using the ^3H thymidine method, with an incubation period of 72 h.

[2] = test system: RPMI-8226; assay: 3H thymidine proliferation assay, RPMI-8226
Protocol: as §1, §2, §3

[3] = test system: MDA-MB-231; assay: ATP luminescence proliferation assay, MDA-MB-231
Protocol: as §1, §2
(§4) Table 3 provides the data for the ATP luminescence proliferation assays, with an incubation period of 48, 72, or 96 h, as noted.

[4] = test system: HL-60; assay: ATP luminescence proliferation assay, HL-60
Summary of the method: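 Cells seeded at 1.0×10^3 cells/well for 3 h, then exposed to 1:3 serial dilutions of free compounds or conjugates for 48, 72 or 96 h, as noted. ATP measured by luminescent cell viability kit; EC50 taken as concentration reducing proliferation by 50%.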

[5] = test system: LNCaP; assay: ATP luminescence proliferation assay, LNCaP
Protocol: as §1, §2, §4

[6] = test system: NCI-H740; assay: ATP luminescence proliferation assay, NCI-H740; settings: H740, 72 h incubation
Protocol: as §1, with “Calif., USA). […]” for “Calif., USA).”
as §4

[7] = test system: UO-31; assay: 3H thymidine proliferation assay, UO-31
Protocol: as §1, §2, §3

[8] = test system: A549; assay: ATP luminescence proliferation assay, A549
Protocol: as §1, §2, §4

[9] = test system: A2058; assay: ATP luminescence proliferation assay, A2058
Protocol: as §1, §2, §4

[10] = test system: HCT-15; assay: ATP luminescence proliferation assay, HCT-15
Protocol: as §1, §2, §4

[11] = test system: ZR-75; assay: ATP luminescence proliferation assay, ZR-75
Protocol: as §1, §2, §4

[12] = test system: SW-480; assay: ATP luminescence proliferation assay, SW-480
Protocol: as §1, §2, §4

[13] = Homo sapiens, LNCaP, 3H thymidine method, 72 h incubation, read-out: EC50, LNCaP
[14] = Homo sapiens, RPMI-8226, 3H thymidine method, 72 h incubation, read-out: EC50, RPMI-8226
[15] = Homo sapiens, ATP luminescence, MDA-MB-231, 72 h incubation, read-out: EC50 MDA-MB-231 (72 h)
[16] = Homo sapiens, ATP luminescence, HL-60, 72 h incubation, read-out: EC50 HL-60 (72 h)
[17] = Homo sapiens, ATP luminescence, 72 h incubation, read-out: EC50 LNCaP (72 h)
[18] = Homo sapiens, UO-31, 3H thymidine method, 72 h incubation, read-out: EC50, UO-31
[19] = Homo sapiens, ATP luminescence, A549, 48 h incubation, read-out: EC50 A549 (48 h)
[20] = Homo sapiens, ATP luminescence, A2058, 72 h incubation, read-out: EC50 A2058 (72 h)
[21] = Homo sapiens, ATP luminescence, HCT-15, 72 h incubation, read-out: EC50 HCT-15 (72 h)
[22] = Homo sapiens, ZR75, ATP luminescence, ZR-75, 72 h incubation, read-out: EC50 ZR-75 (72 h)
[23] = Homo sapiens, ATP luminescence, SW480, 96 h incubation, read-out: EC50 SW480 (96 h)
[24] = 3H thymidine method, 72 h incubation, read-out: EC50, LNCaP
[25] = 3H thymidine method, 72 h incubation, read-out: EC50, RPMI-8226
[26] = ATP luminescence, HL-60, 72 h incubation, read-out: EC50 HL-60 (72 h)
[27] = ATP luminescence, 72 h incubation, read-out: EC50 LNCaP (72 h)
[28] = 3H thymidine method, 72 h incubation, read-out: EC50, UO-31
[29] = ATP luminescence, SW480, 96 h incubation, read-out: EC50 SW480 (96 h)
[30] = Homo sapiens, LNCaP, read-out: EC50, LNCaP, 3H thymidine method, 72 h incubation
[31] = Homo sapiens, RPMI-8226, read-out: EC50, RPMI-8226, 3H thymidine method, 72 h incubation
[32] = Homo sapiens, MDA-MB-231, 72 h, read-out: EC50 MDA-MB-231 (72 h), ATP luminescence, MDA-MB-231, 72 h incubation
[33] = Homo sapiens, HL-60, 48 h, read-out: EC50 HL-60 (48 h), ATP luminescence, HL-60, 48 h incubation
[34] = Homo sapiens, 72 h, read-out: EC50 LNCaP (72 h), ATP luminescence, LNCaP, 72 h incubation
[35] = Homo sapiens, UO-31, read-out: EC50, UO-31, 3H thymidine method, 72 h incubation
[36] = Homo sapiens, A549, 48 h, read-out: EC50 A549 (48 h), ATP luminescence, A549, 48 h incubation
[37] = Homo sapiens, A2058, 72 h, read-out: EC50 A2058 (72 h), ATP luminescence, A2058, 72 h incubation
[38] = Homo sapiens, HCT-15, 72 h, read-out: EC50 HCT-15 (72 h), ATP luminescence, HCT-15, 72 h incubation
[39] = Homo sapiens, ZR75, 48 h, read-out: EC50 ZR-75 (48 h), ATP luminescence, ZR-75, 48 h incubation
[40] = Homo sapiens, SW480, 96 h, read-out: EC50 SW480 (96 h), ATP luminescence, SW480, 96 h incubation

Structure (SMILES)	EC50 [1, 13] [nM]	EC50 [2, 14] [nM]	EC50 [3, 15] [nM]	EC50 [4, 16] [nM]	EC50 [5, 17] [nM]	EC50 [7, 18] [nM]	EC50 [8, 19] [nM]	EC50 [9, 20] [nM]	EC50 [10, 21] [nM]	EC50 [11, 22] [nM]	EC50 [12, 23] [nM]	EC50 [1, 24] [nM]	EC50 [2, 25] [nM]	EC50 [4, 26] [nM]	EC50 [5, 27] [nM]	EC50 [7, 28] [nM]	EC50 [12, 29] [nM]	EC50 [1, 30] [nM]	EC50 [2, 31] [nM]	EC50 [3, 32] [nM]	also measured
Nc1ccc(C(=O)Nc2ccc3[nH]c(C(=O)N4C[C@@H](CCl)c5c4cc(O)c4ccccc54)cc3c2)cc1 [CBI, reference compound]	0.051	0.12	3.1	0.76	3.3	0.035	3	0.2	3.4	2.2	0.92										EC50 ([6]; Homo sapiens): 2.2 nM
CC[C@H](C)[C@H](NC(=O)[C@H]1CCCCN1C)C(=O)N(COC)[C@H](C[C@@H](OC)c1nc(C(=O)N[C@@H](Cc2ccccc2)C(=O)OC)cs1)C(C)C [Compound 29c]												5.2	16	8.6	255	1	41				EC50 ([3]; ATP luminescence, MDA-MB-231, 48 h incubation, read-out: EC50 MDA-MB-231 (48 h)): 52 nM; EC50 ([9]; ATP luminescence, A2058, 48 h incubation, read-out: EC50 A2058 (48 h)): 32 nM; EC50 ([10]; ATP luminescence, HCT-15, 48 h incubation, read-out: EC50 HCT-15 (48 h)): 200 nM; EC50 ([11]; ATP luminescence, ZR-75, 48 h incubation, read-out: EC50 ZR-75 (48 h)): 136 nM
CC[C@H](C)[C@H](NC(=O)[C@H]1CCCCN1C)C(=O)N(C)[C@H](C[C@@H](OC(C)=O)c1nc(C(=O)N[C@@H](Cc2ccc(N)cc2)CC(C)C(=O)O)cs1)C(C)C (stereo partly shown) [Compound 36]																		342	48	9.6	EC50 [4, 33]: 114 nM; EC50 [5, 34]: > 300 nM; EC50 [7, 35]: > 100 nM; EC50 [8, 36]: 1.9 nM; EC50 [9, 37]: 43 nM; EC50 [10, 38]: 96 nM; EC50 [11, 39]: > 300 nM; EC50 [12, 40]: 81 nM
CC[C@H](C)[C@H](NC(=O)[C@H]1CCCCN1C)C(=O)N(COC(=O)CC(C)C)[C@H](C[C@@H](OC(C)=O)c1nc(C(=O)N[C@@H](Cc2ccc(N)cc2)CC(C)C(=O)O)cs1)C(C)C (stereo partly shown) [Compound 54]																		16	0.36	5.6	EC50 [4, 33]: 2.5 nM; EC50 [5, 34]: 11 nM; EC50 [7, 35]: 1.3 nM; EC50 [8, 36]: 3 nM; EC50 [9, 37]: 1.4 nM; EC50 [10, 38]: 2.6 nM; EC50 [11, 39]: 9.6 nM; EC50 [12, 40]: 1.6 nM
COc1cccc2c1C(=O)c1c(O)c3c(c(O)c1C2=O)C[C@@](O)(C(=O)CO)C[C@@H]3O[C@H]1C[C@H](N)[C@H](O)[C@H](C)O1 [Dox, doxorubicin, reference compound]	130	68	518	147	592	267	149	101	600	236	215										
CC[C@H](C)[C@H](NC(=O)[C@H]1CCCCN1C)C(=O)N(COC(=O)CC(C)C)[C@H](C[C@@H](OC(C)=O)c1nc(C(=O)N[C@@H](Cc2ccccc2)C[C@H](C)C(=O)O)cs1)C(C)C [Tub D, tubulysin D, reference compound]												0.36	0.037	0.0096	0.093	0.1	0.02				EC50 ([3]; ATP luminescence, MDA-MB-231, 72 h incubation, read-out: EC50 MDA-MB-231 (72 h)): 0.047 nM; EC50 [6]: 0.022 nM; EC50 ([8]; ATP luminescence, A549, 48 h incubation, read-out: EC50 A549 (48 h)): 0.02 nM; EC50 ([9]; ATP luminescence, A2058, 72 h incubation, read-out: EC50 A2058 (72 h)): 0.0064 nM; EC50 ([10]; ATP luminescence, HCT-15, 72 h incubation, read-out: EC50 HCT-15 (72 h)): 0.014 nM; EC50 ([11]; ATP luminescence, ZR-75, 72 h incubation, read-out: EC50 ZR-75 (72 h)): 0.034 nM
